PubChem BioAssay (NCI)
Where “and” joins values, the source holds several entries; their conditions need not be identical. Equal entries are not always repeated.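 Following 48 hours of exposure in 96-well plates, responses at five concentrations were used to interpolate endpoints linearly. GI50 marks 50% less growth. Definition used: TGI = concentration required for complete inhibition of growth.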

Experiments:
Experiment in all cases: NCI-60 cell line screen, 48 h
NCI/ADR-RES ovarian = test system: NCI/ADR-RES ovarian
OVCAR-8 ovarian = test system: OVCAR-8 ovarian
M14 melanoma = test system: M14 melanoma
OVCAR-4 ovarian = test system: OVCAR-4 ovarian
SF-268 CNS = test system: SF-268 CNS
RPMI-8226 leukemia = test system: RPMI-8226 leukemia
ACHN renal = test system: ACHN renal
NCI-H226 lung = test system: NCI-H226 lung
MDA-MB-231 breast = test system: MDA-MB-231 breast
MDA-MB-435 = test system: MDA-MB-435

SMILES	TGI (NCI/ADR-RES ovarian) [µM]	TGI (OVCAR-8 ovarian) [µM]	TGI (M14 melanoma) [µM]	TGI (OVCAR-4 ovarian)	TGI (SF-268 CNS)	TGI (RPMI-8226 leukemia)	TGI (ACHN renal) [µM]	TGI (NCI-H226 lung) [µM]	TGI (MDA-MB-231 breast) [µM]	TGI (MDA-MB-435)	GI50 (RPMI-8226 leukemia) [µM]	GI50 (OVCAR-4 ovarian) [µM]	GI50 (NCI/ADR-RES ovarian) [µM]	GI50 (OVCAR-8 ovarian) [µM]	GI50 (SF-268 CNS) [µM]	GI50 (NCI-H226 lung) [µM]	GI50 (MDA-MB-435) [µM]	GI50 (M14 melanoma) [µM]	GI50 (ACHN renal) [µM]	GI50 (MDA-MB-231 breast) [µM]
COc1cc2nc(-c3c(F)cccc3F)n(Cc3c(F)cccc3F)c2cc1Cc1c(F)cccc1F	> 100	> 100	> 100	10.9 µM	> 100 µM	> 100 µM	> 100	> 100	> 100	> 100 µM	–	–	–	–	–	–	–	–	–	–
COc1ccc(/C=N/Nc2nc3ccccc3c(=O)n2-c2ccccc2)c(OCc2ccccc2)c1	> 100	> 100	> 100	> 100 µM	> 100 µM	> 100 µM	> 100	> 100	> 100	> 100 µM	> 100	–	–	–	–	–	–	–	–	–
COC(=O)[C@H]1C=C[C@H](OC2OC(COC(C)=O)C(OC(C)=O)C(OC(C)=O)C2OC(C)=O)n2c(=O)n(-c3ccccc3)c(=O)n21 (some centres undefined)	61.8	26.4	9.64	32.9 µM	> 47.1 µM	5.04 µM	3.08	20.5	24.5	16.6 µM	–	4.14	–	–	–	–	–	–	–	–
CCN(C(=O)N[C@H](C(=O)N[C@@H](C)C(=O)OC)C(C)C)c1ccccc1	> 100	63.2	> 100	> 100 µM	> 100 µM	> 100 µM	> 100	> 100	> 100	52.2 µM	–	–	–	–	–	–	–	–	–	–
OCC1OC(O[C@H]2CN3[C@H](O)[C@@H](O)[C@H](O)[C@H]3C2O)C(O)C(O)C1O (some centres undefined)	> 100	> 100	> 100	> 100 µM	> 100 µM	> 100 µM	> 100	> 100	> 100	> 100 µM	–	–	–	–	–	–	–	–	–	–
CCOC(=O)c1[nH]c2nc(SC)nc(NC)c2c1N	> 100	> 100	> 100	> 100 µM	> 100 µM	> 100 µM	> 100	> 100	> 100	> 100 µM	–	–	–	–	–	–	–	–	–	–
c1ccc(-c2ccc(N=NN3CCCC3)cc2)cc1	> 100	> 100	> 100	> 100 µM	> 100 µM	> 100 µM	> 100	> 100	> 100	> 100 µM	–	–	–	–	–	–	–	–	–	–
CC[P+](C#Cc1ccccc1)(c1ccccc1)c1ccccc1	> 100	6.2	3.56	12.3 µM	8.71 µM	0.781 µM	13	8.69	9.41	2.83 µM	–	–	–	–	–	–	–	–	–	–
COc1cc2c(cc1O)CC[n+]1cc3c(OC)c(OC)ccc3cc1-2	> 100	> 100	> 100	> 100 µM	> 100 µM	> 100 µM	> 100	> 100	> 100	> 100 µM	–	–	–	–	–	–	–	–	–	–
NS(=O)(=O)c1nnc(NSc2ccc([N+](=O)[O-])cc2)s1	> 100	> 100	> 100	> 100 µM	> 100 µM	> 100 µM	> 100	> 100	> 100	> 100 µM	–	–	–	–	–	–	–	–	–	–
C/C(=N\Nc1nc2ccccc2s1)c1cccnn1	8.69	12.2	88.7	> 100 µM	20.1 µM	> 100 µM	17	59.3	36.2	> 100 µM	–	–	–	–	–	–	–	–	–	–
CC(C)(C)OC(=O)c1ccc(NCc2cc(O)ccc2O)cc1	12.5	> 55.2	7.35	5.59 µM	17.3 µM	13 µM	3.46	8.64	9.31	16.1 µM	–	–	–	–	–	–	–	–	–	–
COC(=O)C(CCSC)NC(=O)CSc1nnc(COc2ccc(Cl)cc2)n1-c1ccccc1 (centres undefined)	39.2	36.3	33.5	31.8 µM	34.5 µM	34.5 µM	32.1	43.3	31.3	34.3 µM	–	–	–	–	–	–	–	–	–	–
CC/C=C\C/C=C\C/C=C\CCCCCCCC(=O)OC(COC(=O)CCCCCCCCCCCCCCCCC)COC1OC(CO)C(O)C(O)C1O (centres undefined)	> 25	> 25	> 25	> 25 µM	> 25 µM	> 25 µM	> 25	> 25	> 25	> 25 µM	–	–	–	–	–	–	–	–	–	–
O=C(NCCCNCCCCNCCCNC(=O)C(F)(F)F)C(F)(F)F	> 100	> 100	> 100	> 100 µM	> 100 µM	> 100 µM	> 100	> 100	> 100	> 100 µM	–	–	–	–	–	–	–	–	–	–
CC(C)(C)c1ccc2c(c1)OCc1n[nH]c(n1)COc1cc(C(C)(C)C)ccc1OCCOCCO2	12.4	14.3	13.5	7.45 µM	17.3 µM	8.41 µM	14.8	8.97	25.5	11.5 µM	–	–	–	–	–	–	–	–	–	–
O=C(CN=C(CN(c1ccccc1)c1ccccc1)Oc1c(Cl)cc(Cl)cc1Cl)n1cnc2ccccc21	> 100	> 100	> 100	> 100 µM	> 100 µM	> 100 µM	> 100	> 100	> 100	> 100 µM	–	–	–	–	–	–	–	–	–	–

SMILES	TGI (NCI/ADR-RES ovarian) [µM]	TGI (OVCAR-8 ovarian) [µM]	TGI (M14 melanoma) [µM]	TGI (OVCAR-4 ovarian)	TGI (SF-268 CNS)	TGI (RPMI-8226 leukemia)	TGI (ACHN renal) [µM]	TGI (NCI-H226 lung) [µM]	TGI (MDA-MB-231 breast) [µM]	TGI (MDA-MB-435)	GI50 (RPMI-8226 leukemia) [µM]	GI50 (OVCAR-4 ovarian) [µM]	GI50 (NCI/ADR-RES ovarian) [µM]	GI50 (OVCAR-8 ovarian) [µM]	GI50 (SF-268 CNS) [µM]	GI50 (NCI-H226 lung) [µM]	GI50 (MDA-MB-435) [µM]	GI50 (M14 melanoma) [µM]	GI50 (ACHN renal) [µM]	GI50 (MDA-MB-231 breast) [µM]
C[C@@H]1C(=O)CC2(O)[C@@]13C[C@@H](OC(=O)[C@@H]3O)[C@@H](C)[C@@]21COC1=O (some centres undefined)	> 100	> 100	> 100	> 100 µM	> 100 µM	> 100 µM	> 100	> 100	> 100	> 100 µM	–	–	–	–	–	–	–	–	–	–
CCOC(=O)Cc1nn2c(=O)cc(C)nc2s1	> 100	> 100	> 100	> 100 µM	> 100 µM	> 100 µM	> 100	> 100	> 100	> 100 µM	–	–	–	–	–	–	–	–	–	–
Cc1ccsc1C(=S)Nc1ccc(Cl)c(C(=O)OC(C(C)C)C(C)C)c1	> 100	> 100	> 100	> 100 µM	> 100 µM	45.1 µM	> 100	> 100	71.3	63.1 µM	–	–	–	–	–	–	–	–	–	–
Brc1ccc2c(c1)-c1nc3c(cc1CC2)CCc1ccc(Br)cc1-3	> 100	> 100	> 100	> 100 µM	> 100 µM	> 100 µM	> 100	> 100	> 100	> 100 µM	–	–	–	–	–	–	–	–	–	–
CC(O)(C(=O)N(O)c1ccc(Cl)cc1)c1ccc(Cl)cc1 (centres undefined)	86.6	> 100	> 100	> 100 µM	> 100 µM	37.3 µM	62.3	> 100	56.7	87.8 µM	–	–	–	–	–	–	–	–	–	–
COCC(=O)OC1CCn2c1nc1c2C(=O)C(C)=C(NC(C)=O)C1=O (centres undefined)	22.3	12	21.7	2.79 µM and 4.25 µM	9 µM and 22.4 µM	4.76 µM and 9.5 µM	19.5	23.5	4.71	3.69 µM and 3.42 µM	–	1.43	6.89	2.92	3.07	9.33	2.17	–	–	–
CCCC[C@@H]1CCN2C[C@@H](O)[C@@H](O)[C@H]2[C@@H]1O	> 100	> 100	> 100	> 100 µM	> 100 µM	> 100 µM	> 100	> 100	> 100	> 100 µM	–	–	–	–	–	–	–	–	–	–
Cc1ccc2c(c1)C(=O)/C(=C\c1ccc(Cl)cc1)CCS2(=O)=O	5.52	5.39	> 34.4	6.93 µM	16.1 µM	4.81 µM	3.83	14.2	9.41	23.3 µM	–	–	–	–	–	–	–	–	–	–
O=CN(O)CC(=O)O	> 100	> 100	> 100	> 100 µM	> 100 µM	> 100 µM	> 100	> 100	> 100	> 100 µM	–	–	–	–	–	–	–	–	–	–
NNC(=O)c1cccc2c1Oc1ccccc1S2	> 100	> 100	> 100	> 100 µM	> 100 µM	> 100 µM	> 100	> 100	> 100	> 100 µM	–	–	–	–	–	–	–	–	–	–
COc1cc2c(cc1OCCCOc1cc3c(cc1OC)C(=O)N1CCC[C@H]1CN3)N=C[C@@H]1CCCN1C2=O	24.8	1.28	0.24	> 36.5 µM	0.473 µM	0.654 µM	0.359	0.398	16.6	0.29 µM	0.156	–	–	–	–	–	–	–	–	–
COn1cc(CO)c2ccccc21	> 100	> 100	> 100	> 100 µM	> 100 µM	> 100 µM	> 100	6.35	> 100	> 100 µM	–	–	–	–	–	–	–	–	–	–
COc1ccc(CCCCl)c(C2=NCCc3ccccc32)c1	> 100	> 100	> 100	> 100 µM	> 100 µM	21.7 µM	> 100	> 100	> 100	> 100 µM	–	–	–	–	–	–	–	–	–	–
COc1cc(/C=C/c2cc(=O)cc(/C=C/c3ccc(O)c(OC)c3)o2)ccc1O	> 100	> 100	> 100	> 100 µM	> 100 µM	> 20.7 µM	> 100	98.3	> 100	> 100 µM	–	–	–	–	–	–	–	–	–	–
O=C(/C=C1\C[C@H]2C=Nc3ccccc3C(=O)N2C1)NCCCCCNC(=O)/C=C1\C[C@H]2C=Nc3ccccc3C(=O)N2C1	55.9	7.31	12.1	26.4 µM	18.5 µM	> 72.7 µM	3.88	> 70.4	30.4	19 µM	–	–	–	–	–	–	–	–	–	–
Nc1n[nH]c2ccccc12	> 100	> 100	> 100	> 100 µM	> 100 µM	> 100 µM	> 100	> 100	> 100	> 100 µM	–	–	–	–	–	–	–	–	–	–
Nc1nc(Nc2ccc(OCc3cccc(F)c3)cc2)c2c(n1)[nH]c1ccc(O)cc12	32	13.2	4.77	6.04 µM	12.2 µM	5.55 µM	12	54.6	7.33	14.1 µM	2.16	2.18	9.46	3.49	3.1	24.2	3.68	2.12	3.16	2.71
